Measurements published in ChEMBL document CHEMBL1909046, “DrugMatrix in vitro pharmacology data”.

Key:
Insulin receptor = Insulin receptor (Rattus norvegicus, UniProt P15127); format: cell membranes, Wistar, Liver, Membrane; also: in other assays of this panel Not Active means under 50% inhibition at 10 µM
D(4) dopamine receptor = biological target: T1, D(4) dopamine receptor (Homo sapiens, UniProt P21917); test: DRUGMATRIX: Dopamine D4.2 radioligand binding (ligand: [3H] Spiperone); format: cell membranes, CHO-K1, Membrane; conditions: cho-k1; Not Active = under 50% inhibition at 10 µM
T1 sequence (P21917 whole entry): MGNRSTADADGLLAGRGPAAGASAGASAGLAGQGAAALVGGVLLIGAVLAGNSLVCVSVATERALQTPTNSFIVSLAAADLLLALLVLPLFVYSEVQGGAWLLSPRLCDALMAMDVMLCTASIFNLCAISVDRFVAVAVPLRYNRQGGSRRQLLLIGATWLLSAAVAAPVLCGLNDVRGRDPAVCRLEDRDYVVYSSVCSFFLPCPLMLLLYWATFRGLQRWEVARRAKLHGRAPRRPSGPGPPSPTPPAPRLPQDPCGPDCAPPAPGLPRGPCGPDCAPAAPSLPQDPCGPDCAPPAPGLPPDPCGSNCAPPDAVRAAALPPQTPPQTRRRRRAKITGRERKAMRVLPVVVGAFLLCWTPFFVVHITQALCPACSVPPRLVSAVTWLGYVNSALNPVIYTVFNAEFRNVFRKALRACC

[1] = DRUGMATRIX: GABAA, Flunitrazepam, Central radioligand binding (ligand: [3H] Flunitrazepam); format: cell membranes, Rattus norvegicus, Wistar, Brain, Membrane; conditions: Not Active = under 50% inhibition at 10 µM
[2] = biological target: T2, Amine oxidase [flavin-containing] A (Homo sapiens, UniProt P21397); test: DRUGMATRIX: Monoamine Oxidase MAO-A enzyme inhibition (substrate: Kynuramine); parameters: species or system BTI-TN-5B1-4; conditions: bti-tn-5b1-4; Not Active = under 50% inhibition at 10 µM
T2 sequence (P21397 whole entry): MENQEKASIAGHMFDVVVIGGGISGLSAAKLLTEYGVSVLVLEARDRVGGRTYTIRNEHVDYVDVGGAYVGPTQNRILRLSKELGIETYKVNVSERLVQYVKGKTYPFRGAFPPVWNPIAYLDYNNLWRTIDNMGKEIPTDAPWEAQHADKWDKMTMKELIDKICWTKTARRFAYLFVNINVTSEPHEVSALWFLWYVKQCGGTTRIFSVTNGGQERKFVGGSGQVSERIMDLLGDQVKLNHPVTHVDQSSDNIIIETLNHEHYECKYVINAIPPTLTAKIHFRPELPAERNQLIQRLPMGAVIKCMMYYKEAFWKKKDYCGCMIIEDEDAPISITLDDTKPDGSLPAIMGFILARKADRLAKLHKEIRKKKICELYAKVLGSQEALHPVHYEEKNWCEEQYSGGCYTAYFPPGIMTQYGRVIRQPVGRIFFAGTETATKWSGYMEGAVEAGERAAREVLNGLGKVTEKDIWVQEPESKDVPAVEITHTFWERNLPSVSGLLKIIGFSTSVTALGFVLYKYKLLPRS

B2 bradykinin receptor = biological target: T3, B2 bradykinin receptor (Homo sapiens, UniProt P30411); format: cell membranes, Membrane; conditions: chem-1; also: in other assays of this panel Not Active means under 50% inhibition at 10 µM
T3 sequence (P30411 whole entry): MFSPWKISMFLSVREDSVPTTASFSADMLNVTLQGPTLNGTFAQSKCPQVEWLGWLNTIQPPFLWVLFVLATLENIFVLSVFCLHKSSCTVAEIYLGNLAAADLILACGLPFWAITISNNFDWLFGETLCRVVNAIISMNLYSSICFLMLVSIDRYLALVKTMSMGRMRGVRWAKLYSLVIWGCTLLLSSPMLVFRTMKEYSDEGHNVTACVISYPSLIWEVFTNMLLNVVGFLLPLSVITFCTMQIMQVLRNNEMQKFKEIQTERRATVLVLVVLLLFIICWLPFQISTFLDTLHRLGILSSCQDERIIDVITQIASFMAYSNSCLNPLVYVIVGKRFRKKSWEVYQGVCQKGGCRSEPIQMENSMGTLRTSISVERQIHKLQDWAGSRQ

[3] = biological target: T4, Receptor-type tyrosine-protein phosphatase C (Homo sapiens, UniProt P08575); parameters: species or system Escherichia coli;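 also: inhibition of CD45 enzyme activity measured using DiFMUP as substrate; in other assays of this panel Not Active means under 50% inhibition at 10 µM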
T4 sequence (P08575 whole entry): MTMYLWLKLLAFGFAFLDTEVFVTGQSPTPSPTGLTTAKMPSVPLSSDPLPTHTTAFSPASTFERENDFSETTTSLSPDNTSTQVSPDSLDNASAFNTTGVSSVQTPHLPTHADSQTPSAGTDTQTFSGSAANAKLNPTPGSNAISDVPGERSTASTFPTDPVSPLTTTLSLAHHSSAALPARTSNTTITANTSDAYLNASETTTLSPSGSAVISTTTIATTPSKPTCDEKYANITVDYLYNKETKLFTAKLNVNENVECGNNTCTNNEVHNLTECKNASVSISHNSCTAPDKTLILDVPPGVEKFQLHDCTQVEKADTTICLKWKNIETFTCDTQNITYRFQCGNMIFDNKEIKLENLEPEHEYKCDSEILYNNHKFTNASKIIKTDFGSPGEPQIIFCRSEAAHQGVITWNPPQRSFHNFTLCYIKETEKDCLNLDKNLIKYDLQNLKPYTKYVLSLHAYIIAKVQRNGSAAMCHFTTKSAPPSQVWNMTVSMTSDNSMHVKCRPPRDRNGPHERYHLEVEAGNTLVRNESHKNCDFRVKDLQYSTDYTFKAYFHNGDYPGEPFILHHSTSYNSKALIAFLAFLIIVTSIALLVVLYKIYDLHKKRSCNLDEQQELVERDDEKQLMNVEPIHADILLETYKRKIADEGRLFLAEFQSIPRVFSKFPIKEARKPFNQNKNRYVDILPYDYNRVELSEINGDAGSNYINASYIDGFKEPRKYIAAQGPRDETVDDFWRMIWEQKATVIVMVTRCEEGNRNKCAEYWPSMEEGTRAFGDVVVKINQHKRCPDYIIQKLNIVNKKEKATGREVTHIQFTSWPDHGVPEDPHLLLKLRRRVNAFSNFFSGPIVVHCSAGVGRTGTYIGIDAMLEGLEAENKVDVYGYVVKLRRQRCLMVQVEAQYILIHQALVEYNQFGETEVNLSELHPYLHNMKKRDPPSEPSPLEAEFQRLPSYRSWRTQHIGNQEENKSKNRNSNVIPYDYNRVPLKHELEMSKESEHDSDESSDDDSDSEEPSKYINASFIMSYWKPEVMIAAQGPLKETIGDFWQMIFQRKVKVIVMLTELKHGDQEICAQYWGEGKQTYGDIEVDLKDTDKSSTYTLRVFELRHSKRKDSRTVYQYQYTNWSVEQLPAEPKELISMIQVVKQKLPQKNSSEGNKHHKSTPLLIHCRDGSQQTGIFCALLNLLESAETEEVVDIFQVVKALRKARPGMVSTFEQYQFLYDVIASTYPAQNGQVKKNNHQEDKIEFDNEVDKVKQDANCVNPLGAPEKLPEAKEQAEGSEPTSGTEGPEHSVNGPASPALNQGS

Sequence of Insulin receptor (P15127 27-759 limits assumed): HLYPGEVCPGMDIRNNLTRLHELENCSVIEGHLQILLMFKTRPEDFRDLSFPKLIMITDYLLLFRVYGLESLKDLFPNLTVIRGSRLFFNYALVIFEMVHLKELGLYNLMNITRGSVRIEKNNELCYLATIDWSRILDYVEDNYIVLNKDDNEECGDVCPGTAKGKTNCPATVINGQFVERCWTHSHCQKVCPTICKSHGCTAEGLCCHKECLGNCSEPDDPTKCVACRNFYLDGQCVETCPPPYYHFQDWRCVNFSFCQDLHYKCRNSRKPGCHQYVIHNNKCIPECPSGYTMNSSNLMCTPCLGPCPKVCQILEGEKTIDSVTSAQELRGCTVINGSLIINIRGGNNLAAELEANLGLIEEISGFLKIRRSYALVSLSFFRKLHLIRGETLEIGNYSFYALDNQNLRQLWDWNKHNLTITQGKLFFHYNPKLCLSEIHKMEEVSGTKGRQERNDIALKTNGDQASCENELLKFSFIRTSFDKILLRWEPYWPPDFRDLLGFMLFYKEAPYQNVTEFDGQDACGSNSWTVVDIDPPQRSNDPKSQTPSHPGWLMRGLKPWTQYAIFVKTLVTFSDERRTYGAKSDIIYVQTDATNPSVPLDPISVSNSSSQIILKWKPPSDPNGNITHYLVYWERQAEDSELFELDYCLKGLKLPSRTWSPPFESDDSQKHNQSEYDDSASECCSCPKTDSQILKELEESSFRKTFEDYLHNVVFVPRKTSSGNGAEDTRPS
Sequence of Insulin receptor (P15127 764-1383 limits assumed): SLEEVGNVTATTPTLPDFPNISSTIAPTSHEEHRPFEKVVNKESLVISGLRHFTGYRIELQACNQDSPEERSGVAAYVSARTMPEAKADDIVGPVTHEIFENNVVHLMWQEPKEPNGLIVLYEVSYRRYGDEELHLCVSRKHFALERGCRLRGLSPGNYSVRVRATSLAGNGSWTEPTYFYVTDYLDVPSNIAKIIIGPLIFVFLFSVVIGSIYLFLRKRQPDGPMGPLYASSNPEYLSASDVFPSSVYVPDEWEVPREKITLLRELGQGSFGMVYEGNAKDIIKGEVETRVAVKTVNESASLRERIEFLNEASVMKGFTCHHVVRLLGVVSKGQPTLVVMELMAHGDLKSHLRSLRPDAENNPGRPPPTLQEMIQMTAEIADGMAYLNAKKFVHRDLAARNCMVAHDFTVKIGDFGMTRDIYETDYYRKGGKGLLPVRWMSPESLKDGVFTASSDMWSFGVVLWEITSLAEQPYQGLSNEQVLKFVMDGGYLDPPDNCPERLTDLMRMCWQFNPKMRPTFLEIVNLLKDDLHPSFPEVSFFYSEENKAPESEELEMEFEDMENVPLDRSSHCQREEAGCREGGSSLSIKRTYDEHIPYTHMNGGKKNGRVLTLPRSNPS

CC(C)(S)[C@@H](N)C(=O)O [PENICILLAMINE]
Not Active: IC50 (Insulin receptor) | IC50 (D(4) dopamine receptor) | IC50 [1] | Ki [1] | IC50 [2] | IC50 (B2 bradykinin receptor) | IC50 [3]

CC(=O)CCCCn1c(=O)c2c(ncn2C)n(C)c1=O [PENTOXIFYLLINE]
Not Active: IC50 (Insulin receptor) | IC50 (D(4) dopamine receptor) | IC50 [1] | Ki [1] | IC50 [2] | IC50 (B2 bradykinin receptor) | IC50 [3]

O=C1NC(=O)C(c2ccccc2)(c2ccccc2)N1 [PHENYTOIN]
Not Active: IC50 (Insulin receptor) | IC50 (D(4) dopamine receptor) | IC50 [1] | Ki [1] | IC50 [2] | IC50 (B2 bradykinin receptor) | IC50 [3]

CNC(=O)Oc1ccc2c(c1)[C@]1(C)CCN(C)[C@@H]1N2C [PHYSOSTIGMINE]
Not Active: IC50 (Insulin receptor) | IC50 (D(4) dopamine receptor) | IC50 [1] | Ki [1] | IC50 [2] | IC50 (B2 bradykinin receptor) | IC50 [3]

C=C(C)[C@@H]1[C@H]2OC(=O)[C@@H]1[C@]1(O)C[C@H]3O[C@]34C(=O)O[C@H]2[C@]14C [PICROTOXININ]
Not Active: IC50 (Insulin receptor) | IC50 (D(4) dopamine receptor) | IC50 [1] | Ki [1] | IC50 [2] | IC50 (B2 bradykinin receptor) | IC50 [3]

CN1C(C(=O)Nc2ccccn2)=C(O)c2ccccc2S1(=O)=O [PIROXICAM]
Not Active: IC50 (Insulin receptor) | IC50 (D(4) dopamine receptor) | IC50 [1] | Ki [1] | IC50 [2] | IC50 (B2 bradykinin receptor) | IC50 [3]

CCC1(c2ccccc2)C(=O)NCNC1=O [PRIMIDONE]
Not Active: IC50 (Insulin receptor) | IC50 (D(4) dopamine receptor) | IC50 [1] | Ki [1] | IC50 [2] | IC50 (B2 bradykinin receptor) | IC50 [3]

CCCc1cc(=O)[nH]c(=S)[nH]1 [PROPYLTHIOURACIL]
Not Active: IC50 (Insulin receptor) | IC50 (D(4) dopamine receptor) | IC50 [1] | Ki [1] | IC50 [2] | IC50 (B2 bradykinin receptor) | IC50 [3]

COc1ccc(CN(CCN(C)C)c2ccccn2)cc1 [PYRILAMINE]
Not Active: IC50 (Insulin receptor) | IC50 (D(4) dopamine receptor) | IC50 [1] | Ki [1] | IC50 [2] | IC50 (B2 bradykinin receptor) | IC50 [3]

CARBOPLATIN
Not Active: IC50 (Insulin receptor) | Ki (Insulin receptor) | IC50 (D(4) dopamine receptor) | Ki (D(4) dopamine receptor) | IC50 [1] | Ki [1] | IC50 [2] | Ki [2] | IC50 (B2 bradykinin receptor) | Ki (B2 bradykinin receptor) | IC50 [3] | Ki [3]

CISPLATIN
Not Active: IC50 (Insulin receptor) | Ki (Insulin receptor) | IC50 (D(4) dopamine receptor) | Ki (D(4) dopamine receptor) | IC50 [1] | Ki [1] | IC50 [2] | Ki [2] | IC50 (B2 bradykinin receptor) | Ki (B2 bradykinin receptor) | IC50 [3] | Ki [3]

GOLD SODIUM THIOMALATE
Not Active: IC50 (Insulin receptor) | Ki (Insulin receptor) | IC50 (D(4) dopamine receptor) | Ki (D(4) dopamine receptor) | IC50 [1] | Ki [1] | IC50 [2] | Ki [2] | IC50 (B2 bradykinin receptor) | Ki (B2 bradykinin receptor) | IC50 [3] | Ki [3]

OXALIPLATIN
Not Active: IC50 (Insulin receptor) | Ki (Insulin receptor) | IC50 (D(4) dopamine receptor) | Ki (D(4) dopamine receptor) | IC50 [1] | Ki [1] | IC50 [2] | Ki [2] | IC50 (B2 bradykinin receptor) | Ki (B2 bradykinin receptor) | IC50 [3] | Ki [3]
